This is an account of results in ChEMBL document CHEMBL1135684, “Identification of arodyn, a novel acetylated dynorphin A-(1-11) analogue, as a kappa opioid receptor antagonist” (J Med Chem, 2002).

Where a SMILES comes first, the peptide text is derived from it. [ ]: non-standard residue; d: D form.

The target of assay [1] is Mu-type opioid receptor (Homo sapiens, UniProt P35372). As to the kind of experiment: Binding affinity towards Opioid receptor mu 1 using [3H]DAMGO as radioligand.
The target in assay [2] is Kappa-type opioid receptor (Homo sapiens, UniProt P41145). Put plainly: Binding affinity towards Opioid receptor kappa 1 using [3H]diprenorphine as radioligand expressed on chinese hamster ovary (CHO) cells. Type of assay: cell-based.
Kappa-type opioid receptor, sequence (P41145 whole entry): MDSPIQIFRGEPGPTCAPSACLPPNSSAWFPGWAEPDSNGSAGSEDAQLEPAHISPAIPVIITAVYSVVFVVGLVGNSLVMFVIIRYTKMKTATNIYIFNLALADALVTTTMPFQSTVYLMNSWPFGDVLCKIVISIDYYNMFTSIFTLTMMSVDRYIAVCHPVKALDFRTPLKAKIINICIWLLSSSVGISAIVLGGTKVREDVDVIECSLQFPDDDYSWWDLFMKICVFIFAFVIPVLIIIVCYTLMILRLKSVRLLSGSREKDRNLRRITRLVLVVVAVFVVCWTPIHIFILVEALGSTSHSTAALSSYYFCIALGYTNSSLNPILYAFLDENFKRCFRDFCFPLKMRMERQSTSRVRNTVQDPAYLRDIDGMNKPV
In assay [3] the target is Delta-type opioid receptor (Homo sapiens, UniProt P41143). Put plainly: Binding affinity towards Opioid receptor delta 1 using [3H]DPDPE as radioligand. More on the design: species or system Cricetulus griseus.
Delta-type opioid receptor, sequence (P41143 whole entry): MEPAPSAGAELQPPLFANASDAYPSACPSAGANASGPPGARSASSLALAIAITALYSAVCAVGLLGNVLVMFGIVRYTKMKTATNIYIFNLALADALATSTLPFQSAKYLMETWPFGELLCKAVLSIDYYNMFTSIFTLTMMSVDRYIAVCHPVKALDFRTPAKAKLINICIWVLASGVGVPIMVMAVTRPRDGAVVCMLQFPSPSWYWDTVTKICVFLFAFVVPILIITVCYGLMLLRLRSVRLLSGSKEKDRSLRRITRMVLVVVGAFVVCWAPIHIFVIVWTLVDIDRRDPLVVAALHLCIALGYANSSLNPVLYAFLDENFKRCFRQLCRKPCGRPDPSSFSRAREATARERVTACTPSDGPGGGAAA

Mu-type opioid receptor, sequence (P35372 whole entry): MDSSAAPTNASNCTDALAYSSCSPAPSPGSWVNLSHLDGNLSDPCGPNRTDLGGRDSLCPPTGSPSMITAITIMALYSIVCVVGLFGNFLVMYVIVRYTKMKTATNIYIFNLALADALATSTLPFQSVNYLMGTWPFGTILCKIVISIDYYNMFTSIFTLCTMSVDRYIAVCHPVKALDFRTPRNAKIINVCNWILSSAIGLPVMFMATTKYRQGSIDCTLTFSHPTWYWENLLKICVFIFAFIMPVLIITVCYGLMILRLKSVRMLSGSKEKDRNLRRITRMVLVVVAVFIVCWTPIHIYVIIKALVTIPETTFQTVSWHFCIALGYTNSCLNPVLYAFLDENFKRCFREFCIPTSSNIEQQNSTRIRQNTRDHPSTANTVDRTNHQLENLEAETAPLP

One may read the Ki as a measure of affinity in units of concentration, obtained from inhibition or displacement. A lower Ki goes with tighter binding. `CSCC[C@H](NC(=O)[C@H](Cc1ccccc1)NC(=O)[C@H](CCCN=C(N)N)NC(C)=O)C(=O)N[C@@H](Cc1c[nH]c2ccccc12)C(=O)N[C@@H](CCSC)C(=O)N[C@@H](CCCN=C(N)N)C(=O)N[C@@H](CCCN=C(N)N)C(=O)N[C@H](C)C(=O)N[C@@H](CCCN=C(N)N)C(=O)N1CCC[C@H]1C(=O)N[C@@H](CCCCN)C(N)=O` [EXTACET]: the Ki in assay [1] came out at 1.12 nM; in assay [2] it was 6.6 nM.
With `CC(=O)N[C@@H](Cc1ccccc1)C(=O)N[C@@H](Cc1ccccc1)C(=O)N[C@@H](Cc1ccccc1)C(=O)N[C@@H](CCCNC(=N)N)C(=O)N[C@@H](CC(C)C)C(=O)N[C@@H](CCCNC(=N)N)C(=O)N[C@@H](CCCNC(=N)N)C(=O)N[C@H](C)C(=O)N[C@@H](CCCNC(=N)N)C(=O)N1CCC[C@H]1C(=O)N[C@@H](CCCCN)C(N)=O` (Ac-FFFRLRR[dA]RPK-NH2), the affinity in assay [3] corresponds to a Ki of 5.83 µM.
